These results are taken from US20230227427A1, “IL-17A MODULATORS” (SANOFI, priority 2010, published 2023).

The structures appear in SMILES notation.

One assay has as its target T1, human recombinant IL-17A (Homo sapiens, UniProt Q16552).
T1 construct: purchased R&D Systems 7955-IL/CF
T1 sequence (Q16552 24-155): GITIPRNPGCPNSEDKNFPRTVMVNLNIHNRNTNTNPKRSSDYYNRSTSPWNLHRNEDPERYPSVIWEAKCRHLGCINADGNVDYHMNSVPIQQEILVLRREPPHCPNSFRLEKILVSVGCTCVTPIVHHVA
Put plainly: IL-17A AlphaLISA assay (block binding of IL-17A to its receptor IL-17RA). The conditions noted are these: compounds pre-incubated with the IL-17A for 30 min (indicated by * in Table A); read-out: AlphaLISA pIC50 (converted). Put shortly:
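PBS with 0.05% Tween-20 and 0.1% BSA. IL-17A stock 7.5 nM, IL-17RA/Fc stock 5 nM; compound–cytokine pre-incubation 24 h at RT, or 30 min where marked, then 90 min with receptor. pIC50 from 4-parameter logistic AlphaLISA signal, normalised to DMSO and 6 μM reference inhibitor.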
With `CCc1nocc1C(=O)N[C@H](C(=O)Nc1ccc(-c2c(CO)cnn2C)cn1)C1CCCCCC1` [Example 202, (S)—N-(1-cycloheptyl-2-((5-(4-(hydroxymethyl)-1-methyl-1H-pyrazol-5-yl)pyridin-2-yl)amino)-2-oxoethyl)-3-ethylisoxazole-4-carboxamide], the IC50 was 158 nM. For the molecule `Cc1noc(C)c1-c1ccc(NC(=O)[C@@H](NC(=O)c2ccnn2C)C2CCCCCC2)nc1` [Example 115, (S)—N-(1-Cycloheptyl-2-((5-(3,5-dimethylisoxazol-4-yl)pyridin-2-yl)amino)-2-oxoethyl)-1-methyl-1H-pyrazole-5-carboxamide], the IC50 is 126 nM. For the molecule `CCc1nocc1C(=O)N[C@H](C(=O)Nc1ccc(-c2c(C)cnn2C)cn1)C1CCCCC1` [Example 178, (S)—N-(1-cyclohexyl-2-((5-(1,4-dimethyl-1H-pyrazol-5-yl)pyridin-2-yl)amino)-2-oxoethyl)-3-ethylisoxazole-4-carboxamide], the IC50 was 79.4 nM.

Staying with this assay, now noted: compounds pre-incubated with the IL-17A for 24 h at room temperature; read-out: AlphaLISA pIC50 (converted).
Regarding `Cc1c(-c2ccc(NC(=O)[C@@H](NC(=O)c3ccnn3C)C(c3ccccc3)c3ccccc3)cc2)ccc(=O)n1C` [Example 13, (S)—N-(1-((4-(1,2-dimethyl-6-oxo-1,6-dihydropyridin-3-yl)phenyl)amino)-1-oxo-3,3-diphenylpropan-2-yl)-1-methyl-1H-pyrazole-5-carboxamide], the IC50 is 7.94 nM. `Cn1nccc1C(=O)N[C@H](C(=O)Nc1ccc(-c2cccc(=O)[nH]2)c(F)c1)C(c1ccccc1)c1ccccc1` [Example 77, (S)—N-(1-((3-fluoro-4-(6-oxo-1,6-dihydropyridin-2-yl)phenyl)amino)-1-oxo-3,3-diphenylpropan-2-yl)-1-methyl-1H-pyrazole-5-carboxamide]: the IC50 was 126 nM. Turning to `Cc1cncc(C)c1-c1ccc(NC(=O)[C@@H](NC(=O)c2ccnn2C)C(c2ccccc2)c2ccccc2)cc1F` [Example 14, (S)—N-(1-((4-(3,5-dimethylpyridin-4-yl)-3-fluorophenyl)amino)-1-oxo-3,3-diphenylpropan-2-yl)-1-methyl-1H-pyrazole-5-carboxamide], the IC50 is 39.8 nM. On the same count and under the same terms, under `Cn1nccc1C(=O)N[C@H](C(=O)Nc1ccc(-c2c[nH]c(=O)c3[nH]ccc23)cc1)[C@H]1CC[C@H](C)CC1` [Example 85, 1-Methyl-N—((S)-1-((1r,4S)-4-methylcyclohexyl)-2-oxo-2-((4-(7-oxo-6,7-dihydro-1H-pyrrolo[2,3-c]pyridin-4-yl)phenyl)amino)ethyl)-1H-pyrazole-5-carboxamide] stands 63.1 nM; under `Cn1nccc1C(=O)N[C@H](C(=O)Nc1ccc(-c2cn[nH]c2)c(F)c1)C(c1ccccc1)c1ccccc1` [Example 62, (S)—N-(1-((3-fluoro-4-(1H-pyrazol-4-yl)phenyl)amino)-1-oxo-3,3-diphenylpropan-2-yl)-1-methyl-1H-pyrazole-5-carboxamide], 794 nM.

Turning to `Cc1noc(C)c1-c1ccc(NC(=O)[C@@H](NC(=O)c2ccnn2C)[C@H]2CC[C@H](C)CC2)nc1` [Example 97, N—((S)-2-((5-(3,5-Dimethylisoxazol-4-yl)pyridin-2-yl)amino)-1-((1r,4S)-4-methylcyclohexyl)-2-oxoethyl)-1-methyl-1H-pyrazole-5-carboxamide], the IC50 is 79.4 nM. On to `Cn1nccc1C(=O)N[C@H](C(=O)Nc1ccc(-c2ccnc3c2CCC3)cc1)C(c1ccccc1)c1ccccc1` [Example 44, (S)—N-(1-((4-(6,7-dihydro-5H-cyclopenta[b]pyridin-4-yl)phenyl)amino)-1-oxo-3,3-diphenylpropan-2-yl)-1-methyl-1H-pyrazole-5-carboxamide], for which the IC50 is 251 nM. On the same count and under the same terms, with `Cc1c(-c2ccc(NC(=O)[C@@H](NC(=O)c3ccnn3C)[C@H]3CC[C@H](C)CC3)cc2F)ccc(=O)n1C` [Example 83, N—((S)-2-((4-(1,2-Dimethyl-6-oxo-1,6-dihydropyridin-3-yl)-3-fluorophenyl)amino)-1-((1r,4S)-4-methylcyclohexyl)-2-oxoethyl)-1-methyl-1H-pyrazole-5-carboxamide] the figure was 63.1 nM.
